Some test systems named below: COLO 205; HCT-15; HOP-62; HOP-92; HT-29; K562; KM12; MDA-MB-231; NCI-H460; SF-268; SK-MEL-2; SK-MEL-5; SK-OV-3; SN12C; SR; SW-620; UACC-62; NCI-H23; T47D.
Holding throughout (assay): DTP human tumour cell line panel, 48 h

Consider twelve compounds from ChEMBL document CHEMBL1201862, “PubChem BioAssay data set” (2004).

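The compound was tested at five concentrations on cells cultured in 96-well plates, with a 48-hour exposure period. At the GI50, growth is halved.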 Calls of active or inactive are those of the source. Rule as the data show it: active = GI50 up to about 1.1 µM and inactive = higher. Bounds are passed on as bounds.

A word on the GI50: it is the concentration giving 50% growth inhibition.

In the case of `COc1cc2c(cc1OCCCN1CCN(C)CC1)N=C[C@@H]1CCCN1C2=O`, the GI50 in the assay on COLO 205 was 1.02 µM (active); in the assay with HCT-15, 2.25 µM; in the assay on HOP-62, 3.44 µM (inactive); in the assay on HOP-92 it was 0.75 µM (active); in the assay with HT-29 it was 1.74 µM (inactive); with K562, 0.679 µM (active). For the same compound, the GI50 was 1.57 µM (inactive) in the assay on KM12; 2.18 µM (inactive) in the assay on MDA-MB-231; 2.82 µM (inactive) in the assay with NCI-H460; 3.03 µM (inactive) in the assay on SF-268; 2.42 µM (inactive) with SK-MEL-2; 2.04 µM (inactive) in the assay on SK-MEL-5. For the same compound, the GI50 is 2.84 µM (inactive) in the assay with SK-OV-3; 3.57 µM (inactive) in the assay with SN12C; 0.0887 µM (active) with SR; 1.41 µM (inactive) with SW-620; 1.78 µM (inactive) in the assay on UACC-62.

As to `CC(C)Oc1c(C2(c3ccccc3)SCCCS2)c(=O)c1=O`, the GI50 in the assay on COLO 205 is > 100 µM (inactive); with HCT-15, above 100 µM; in the assay with HOP-62 it was > 100 µM (inactive); in the assay on HOP-92, > 100 µM (inactive); in the assay with HT-29, > 100 µM (inactive); in the assay on KM12, 50.2 µM (inactive). In addition, the GI50 with MDA-MB-231, with NCI-H23, with NCI-H460, in the assay with SF-268, in the assay on SK-MEL-2 and in the assay on SK-MEL-5 was > 100 µM (inactive) throughout. For the same compound, the GI50 in the assay with SK-OV-3, in the assay with SN12C, in the assay on SW-620, in the assay on T47D and with UACC-62 was > 100 µM (inactive) throughout.

Take `[O-][N+]1=[N+]([O-])[C@@H](c2ccccc2)[C@H]1c1ccccc1`: the GI50 is 19.3 µM (inactive) with COLO 205; 11.4 µM in the assay with HCT-15; 18.7 µM (inactive) in the assay with HOP-62; 15.6 µM (inactive) with HOP-92; 18.3 µM (inactive) with HT-29; 3.52 µM (inactive) in the assay with K562. Moreover, the GI50 in the assay with KM12 was 22.4 µM (inactive); in the assay with MDA-MB-231, 20.2 µM (inactive); in the assay with NCI-H23 it was 16.5 µM (inactive); in the assay with NCI-H460, 22.4 µM (inactive); with SF-268, 24.9 µM (inactive); with SK-MEL-2, 17.9 µM (inactive). Also, the GI50 was 16.7 µM (inactive) with SK-MEL-5; 32.3 µM (inactive) in the assay with SK-OV-3; 18 µM (inactive) with SN12C; 18.4 µM (inactive) in the assay on SR; 14.5 µM (inactive) with SW-620; 17.5 µM (inactive) in the assay with UACC-62.

With `CN(CC(=O)O)c1ncc2c(n1)-c1ccccc1OC2`, the GI50 with COLO 205 was > 100 µM (inactive); in the assay with HCT-15, above 100 µM; in the assay on HOP-92, > 100 µM (inactive); with HT-29, > 100 µM (inactive); in the assay with K562, > 100 µM (inactive); in the assay with KM12 it was > 100 µM (inactive). Moreover, the GI50 in the assay with MDA-MB-231, in the assay with NCI-H23, in the assay with NCI-H460, with SF-268, in the assay with SK-MEL-2 and with SK-MEL-5 was > 100 µM (inactive) each time. In addition, the GI50 in the assay on SN12C, in the assay with SR, in the assay with SW-620 and in the assay on UACC-62 was > 100 µM (inactive) in each case.

`O=C1c2ccccc2-c2c1c(-c1ccccc1)c1n2C2(C(=O)c3ccccc3C2=O)C2C(=O)N(c3ccccc3)C(=O)C12` (centres undefined): the GI50 with COLO 205 was 18.5 µM (inactive); in the assay on HCT-15, 16.4 µM; with HOP-62, 26.3 µM (inactive); in the assay on HOP-92, 23.8 µM (inactive); in the assay on HT-29 it was 17.7 µM (inactive); in the assay with KM12, 19.8 µM (inactive). For the same compound, the GI50 with NCI-H23 was 17.4 µM (inactive); in the assay with NCI-H460, 12 µM (inactive); in the assay on SF-268, 21.1 µM (inactive); in the assay on SK-MEL-2 it was 22.6 µM (inactive); in the assay with SK-MEL-5, 18.2 µM (inactive); in the assay with SK-OV-3, 41.9 µM (inactive). Besides, the GI50 in the assay on SN12C is 19.9 µM (inactive); in the assay with SW-620, 31.5 µM (inactive); with T47D, 16.9 µM (inactive); with UACC-62, 21.6 µM (inactive).

Take `O=C(O)c1ccc(N2C=[N+]3C(=Nc4ccccc43)C2)cc1`: the GI50 in the assay with COLO 205 is > 100 µM (inactive); in the assay on HCT-15, above 100 µM; with HOP-62 it was > 100 µM (inactive); in the assay with HT-29, > 100 µM (inactive); in the assay with K562 it was > 100 µM (inactive); in the assay on KM12 it was > 100 µM (inactive). Moreover, the GI50 with MDA-MB-231, with NCI-H23, with NCI-H460, with SF-268, in the assay with SK-MEL-2 and with SK-MEL-5 was > 100 µM (inactive) in each case. Further, the GI50 with SK-OV-3, in the assay with SN12C, in the assay with SW-620, in the assay with T47D and with UACC-62 was > 100 µM (inactive) throughout.

In the case of `Cc1cc2[nH]c3c(C#N)c(-c4ccccc4)c(/C=N/c4ccc(Cl)cc4)c(=O)n3c2cc1C`, the GI50 is > 100 µM (inactive) in the assay with COLO 205; above 100 µM in the assay with HCT-15; > 100 µM (inactive) in the assay with HOP-62; > 100 µM (inactive) in the assay with KM12; > 100 µM (inactive) in the assay with MDA-MB-231; > 100 µM (inactive) in the assay with NCI-H23. The GI50 in the assay on NCI-H460, with SF-268, in the assay on SK-MEL-2, with SK-MEL-5, in the assay with SK-OV-3 and in the assay on SN12C was > 100 µM (inactive) throughout. Also, the GI50 in the assay on SW-620 and in the assay on T47D was > 100 µM (inactive) throughout.

`O=P(O)(O)CN1CCNCCN(CP(=O)(O)O)CCNCC1`: the GI50 in the assay with COLO 205 was 5.13 µM (inactive); in the assay on HCT-15, 4.2 µM; in the assay with HOP-62, > 100 µM (inactive); with HOP-92, 3.78 µM (inactive); with HT-29 it was 3.95 µM (inactive); in the assay with K562, 3.44 µM (inactive). Besides, the GI50 in the assay with KM12 was 6.84 µM (inactive); in the assay on MDA-MB-231, > 100 µM (inactive); in the assay on NCI-H23 it was 10.1 µM (inactive); with NCI-H460, 3.24 µM (inactive); with SF-268, > 100 µM (inactive); in the assay on SK-MEL-2 it was > 100 µM (inactive). Also, the GI50 with SK-MEL-5 was 4.76 µM (inactive); with SK-OV-3 it was 8.87 µM (inactive); in the assay on SN12C, > 100 µM (inactive); in the assay with SR it was 1.79 µM (inactive); in the assay on SW-620, 4.74 µM (inactive); in the assay with UACC-62, 7.74 µM (inactive).

As to `CCCCCCOC(=O)/C=C/[C@]1(CO)C/C(=C/CC(C(C)C)C(C)C)C(=O)O1`, the concentration for 50% growth inhibition (GI50) in the assay with HCT-15 was 14.6 µM; in the assay with HOP-62 it was 8.41 µM (inactive); in the assay on HOP-92, 12.1 µM (inactive); with HT-29, 7.33 µM (inactive); in the assay with K562, 0.406 µM (active); in the assay with KM12 it was 16 µM (inactive). Besides, the GI50 in the assay on NCI-H23 is 12.2 µM (inactive); with NCI-H460 it was 1.74 µM (inactive); in the assay with SF-268 it was 10.9 µM (inactive); in the assay with SK-MEL-2, 16.2 µM (inactive); in the assay with SK-MEL-5, 2.13 µM (inactive); in the assay with SK-OV-3 it was 18.2 µM (inactive). Besides, the GI50 in the assay with SW-620 is 12.5 µM (inactive); in the assay with T47D it was 16.8 µM (inactive); in the assay with UACC-62, 13.9 µM (inactive).

For the compound `Cc1ccc(C(=O)CCC2C(=O)CC(C)(C)CC2=O)cc1`, the GI50 in the assay with COLO 205 was > 100 µM (inactive); in the assay on HCT-15, above 100 µM; with HOP-62, > 100 µM (inactive); with HOP-92 it was 44.9 µM (inactive); in the assay on HT-29, > 100 µM (inactive); in the assay on KM12 it was > 100 µM (inactive). Further, the GI50 in the assay with MDA-MB-231, in the assay with NCI-H23, in the assay on NCI-H460, with SF-268, in the assay on SK-MEL-2 and in the assay with SK-MEL-5 was > 100 µM (inactive) each time. Besides, the GI50 in the assay with SK-OV-3 was > 100 µM (inactive); with SN12C, > 100 µM (inactive); in the assay with SR it was 15.7 µM (inactive); in the assay on SW-620, > 100 µM (inactive); in the assay on UACC-62, > 100 µM (inactive).

Regarding `Cc1cc(O)c2c(=O)c3ccccc3[nH]c2c1`, the GI50 in the assay on COLO 205 was 13.2 µM (inactive); in the assay with HCT-15, 11.4 µM; in the assay on HOP-62, 23.2 µM (inactive); in the assay on HOP-92, 25.9 µM (inactive); with HT-29 it was 8.63 µM (inactive); in the assay on K562 it was 9.77 µM (inactive). The GI50 in the assay with KM12 is 18.5 µM (inactive); with MDA-MB-231, 32.4 µM (inactive); with NCI-H23 it was 15 µM (inactive); in the assay on NCI-H460 it was 14.9 µM (inactive); in the assay on SF-268 it was 26.8 µM (inactive); in the assay on SK-MEL-2, 81.7 µM (inactive). The GI50 is 14.7 µM (inactive) with SK-MEL-5; 52.8 µM (inactive) in the assay with SK-OV-3; 32.5 µM (inactive) in the assay on SN12C; 16 µM (inactive) with SR; 41.6 µM (inactive) with SW-620; > 10 µM (inactive) in the assay with UACC-62.

As for `Cc1ccc2c(=O)cc(Cc3csc4ccccc34)[nH]c2n1`, the GI50 in the assay on COLO 205 is 26.7 µM (inactive); in the assay with HCT-15, 12.1 µM; in the assay with HOP-62, 59.2 µM (inactive); in the assay on HT-29, 35.1 µM (inactive); with K562, 43.5 µM (inactive); with KM12 it was 21.3 µM (inactive). For the same compound, the GI50 in the assay with MDA-MB-231 was 52.5 µM (inactive); with NCI-H23 it was 19.3 µM (inactive); with SF-268, 21.3 µM (inactive); with SK-MEL-2 it was 79.3 µM (inactive); with SK-MEL-5, 16.4 µM (inactive); in the assay on SK-OV-3, 67 µM (inactive). Moreover, the GI50 in the assay with SN12C is 42.9 µM (inactive); in the assay on SW-620, 40.7 µM (inactive); in the assay on T47D, 19 µM (inactive); with UACC-62, 27 µM (inactive).
